Entries after “also recorded” stand apart in the source; their conditions may differ. Read-outs that look alike come from different tables or passages of the source.

Common to all, as to assay type: cell-based, human
In data set [1] the test system is A549 cells. Briefly: Viability studies (trypan blue staining and cell counting) with or without IR excitation. The following applies: for IC50: linear regression analysis; for Toxicity in words, dark and light: with or without IR (850 nm) excitation; for Concentration at which still non-toxic: cells. The procedure: The cell lines human lung carcinoma (A549), metastatic human melanoma (WM1158) and Vemurafenib-resistant melanoma (Sk-Mel-28-Vem^R) are used. Sk-Mel-28-Vem^R is generated by culturing a parental melanoma cell lines in the presence of 2 μM Vemurafenib for 2 months. Acquired Vemurafenib resistance is defined by >1 log change in IC50 between nonresistant and resistant cell lines. Resistance is maintained through media supplementation with 2 μM Vemurafenib, which is changed every 48 hours. All cells are cultured in DMEM without pyruvate with 10% heat inactivated fetal bovine serum supplemented with glutamine and penicillin/streptomycin, and incubated in 37° C. with 5% CO2.
A549 and WM1158 cells are seeded at a density of 50,000 cells per well in 6-well tissue culture plates. After 24 hours of incubation, media is aspirated and replaced with media containing luminescent dyes at indicated concentrations. Each well is irradiated with an 850 nm LED lamp with an illumination rate of 526 mW/cm^2 for an hour in the incubator, and control cells are left in a dark incubator without irradiation. For studies with Cy7, a 740 nm LED lamp is used instead of an 850 nm, but with a similar illumination flux. Immediately after irradiation, the media is replenished with fresh dye-laced media and allowed to incubate for another 24 hours. […] Viable cell number is determined at 24 and 96 hours using trypan blue staining and a Nexcelom Cellometer Auto T4 cell counter. All assays are done with 3 biological replicates. The fold change in cell proliferation over days of treatment was calculated using the following equation.

A further data set concerns mitochondrial superoxide. The experiment in a line: MitoSOX measurement of mitochondrial superoxide. The following applies: A549 cells treated 4 days at phototoxic concentrations; with or without light. From the text:
FIG. 22. Luminescent organic salts generate mitochondrial ROS. […] MitoSOX is used to measure mitochondrial superoxide, and H2DCFDA for general cytoplasmic ROS in A549 cell treated with organic salts at indicated phototoxic concentrations for 4 days.
Photoactive agents accumulate in the mitochondria of cancer cells and generate reactive oxygen species (ROS) with light exposure, depolarizing the mitochondrial membrane potential to cause cell death. Small molecule protective agents that quench ROS have been used to decrease their phototoxicity. However, the exact type of ROS generated by each luminescent agent remains unclear. Photo-induced ROS include singlet oxygen, superoxide radical anion, hydrogen peroxide, hydroxyl radical and others (see FIG. 21). Superoxide is a highly reactive and biologically toxic species deployed in nature to kill invading organisms. It is often formed as a byproduct of mitochondrial respiration but is typically quenched by the highly efficient superoxide dismutase. Hydroxyl radicals are also highly reactive, damaging nearly all forms of biological molecules. Unlike superoxide radical, the hydroxyl radical cannot be easily quenched naturally via enzymes, and endogenous antioxidants are typically required. Singlet oxygen is the excited state of the common triplet oxygen (O2 ground state) and is highly reactive towards organic compounds. Singlet oxygen can be eliminated in mammalian systems by antioxidants. A range of nitroxy radicals can subsequently stem from superoxide (peroxynitrite) or peroxide (nitrogen dioxide) species. […] Each luminescent cation-anion pair generates specific ROS resonant with its own energy level, and cell types can be targeted by generating the key sensitizing ROS. For example, it is expected that CyFPhB is phototoxic (see FIGS. 11A and 11B and 12A and 12B) by generating reactive oxygen species, which can be resonant with its molecular orbital energy levels (FIG. 21). […] No cytoplasmic ROS is detected using general cytoplasmic ROS probe H2DCFDA. […]

Data set [2] has as its system A549 cells. Briefly: Luminescent imaging of cells. The method, then:
Images are obtained using a Leica DMi8 microscope with a PE4000 LED light source, DFC9000GT camera, and LAS X imaging system. A549 cells are seeded in 3 cm tissue culture plates at a density of 50,000 cells per well in DMEM media containing luminescent organic salts at indicated concentrations. The cells incubate for 2 days at 37° C. with 5% CO2 until the day of imaging. For live cell imaging, the media is aspirated and replaced with fresh dye-free media to reduce background noise. For fixed cell imaging, cells are grown on 0.5 mm coverslips within 3 cm plates. The media is aspirated and the cells are washed with phosphate buffered saline (PBS) before being submerged in cold methanol and incubated at −20° C. for 15 minutes. The cells are then washed with PBS 5 times, and the coverslips are then mounted to slides using DAPI with Fluoromount-G.

As to `CCN1C(=CC=C2CCCC(C=CC3=[N+](CC)c4ccc5ccccc5c4C3(C)C)=C2Cl)C(C)(C)c2c1ccc1ccccc21.Fc1c(F)c(F)c([B-](c2c(F)c(F)c(F)c(F)c2F)(c2c(F)c(F)c(F)c(F)c2F)c2c(F)c(F)c(F)c(F)c2F)c(F)c1F` [CyTPFB], the IC50 in the data set with A549 cells [1] (A549 cells, 850 nm irradiation, read-out: IC50 850 nm) came out at 11 µM; in the data set with A549 cells [1] (A549 cells, dark, no irradiation, read-out: IC50 Dark), 126 µM. For the same compound, the “Phototoxicity with IR excitation, in words” value in the data set on A549 cells [1] (A549 cells, IR (850 nm) excitation) is listed as “non phototoxic to orders of magnitude higher concentrations”. Moreover, in the data set with A549 cells [1] (A549 cells, listed as Cy^+ paired with TPFB^−), the “Fold concentration relative to CyPF6 at which still non-toxic” value was “greater than 75 fold”. Further, the “Toxicity in words, dark and light” value in the data set with A549 cells [1] (A549 cells) was “non-toxic”; in the data set on A549 cells [1] (A549 cells, listed as Cy^+ paired with TPFB), “not toxic to cells in the dark and in the light”. Also, the “Toxicity in the dark, in words” value in the data set with A549 cells [1] (A549 cells, without IR excitation) is “deactivates the dark cellular toxicity”. For the same compound, the results for the “Concentration at which still non-toxic” value in the data set on A549 cells [1] and with A549 cells [1] (listed as Cy^+ paired with TPFB^−) were 20 µM and 126 µM, respectively. Also, the “Mitochondrial superoxide / ROS generation (MitoSOX), in words” value in the data set on mitochondrial superoxide is on record as “generating minimal ROS even with light at high concentrations; also recorded: generating minimal superoxide even with light”. Besides, the “Cellular localization versus concentration in media, in words” value in the data set on A549 cells [2] is on record as “localize inside cells proportionally to the initial introduced concentration in the cellular media”.

For the origin of these results see US12478677B2, “Tunable luminescent organic salts for enhanced imaging and photodynamic therapy” (BOARD OF TRUSTEES OF MICHIGAN STATE UNIVERSITY, priority 2017, dated 2025).
